The results in this text go back to US8829213B2, “Liver X receptor agonists” (The University of Chicago, priority 2009, dated 2014).

Molecules are shown by their SMILES.

The subject of test [1] is LDLR−/− mice. Briefly: Atherosclerotic lesion quantification in LDLR−/− mice fed an atherogenic diet. The test is classed as in vivo. To be noted: 8 weeks. As for the experimental part:
(§1) Eight-week old male LDLR−/− mice on a C57BL/6 background (obtained from Jackson Laboratory) were fed an atherogenic diet (TD94059, Harlan TEKLAD, Madison, Wis.) for 8 weeks. During the same period, the mice received Compound 1 daily by gavage at a dose of 3 or 5 mg/kg in a microemulsion prepared by the method described in Gao et al., Int J Pharm 1998, 161:75-86). The control group (vehicle) received a microemulsion without Compound 1. After 8 weeks, the mice were fasted for 4 hours and anesthetized with ketamine (100 mg/kg) and xylazine (10 mg/kg). A blood sample was collected from the retro-orbital plexus of each mouse. 200 μl of plasma was fractionated on tandem Superose 6 fast protein liquid chromatography columns (Reardon et al., 2001). Cholesterol and triglyceride in the even-numbered fast protein liquid chromatography fractions and in plasma samples were measured using commercial kits (Stanbio Laboratory, Boerne, Tex.).
The mice were then perfused transcardially with PBS and then paraformaldehyde. The hearts and upper vasculatures were removed and prepared for histology as described in Reardon et al., Arterioscler Thromb Vasc Biol 2001, 21:1011-1016.
Lesions in the innominate artery were quantified using 4 digitally captured oil red O-stained 10 μm sections, separated by 100 μm and located 150-450 μm distal to the branch point of the innominate artery from the aortic arch. Lesions in the ascending thoracic aorta were assessed from three sections separated by 100 μm and located 100-300 μm below the apex of the lesser curvature of the aortic arch. Aortic sinus lesions were evaluated from 3 sections, separated by 100 μm and beginning at the site of appearance of the coronary artery. OpenLab software version 3.1.5 was used in the quantification.

Test [2] relates to LDLR−/− mice. Briefly: Reduction of plasma cholesterol and triglyceride levels in LDLR−/− mice fed an atherogenic diet. It is filed as in vivo. To be noted: 8 weeks. As for the experimental part: as §1
Test [3] has as its system human LXRα or LXRβ. Briefly: Luciferase-based reporter gene assay for LXR agonism. The test is classed as cell-based. To be noted: HEK293 cells co-transfected with human LXRα or LXRβ, 48 hours. As for the experimental part:
The ability of Compound 1 to act as an LXR agonist was tested using a luciferase-based reporter gene assay according to the method described in Graham et al., Virology, 1973, 52:456. The assay is described below:
Wells of a 48-well plate were seeded with 50,000 human embryonic kidney (HEK293) cells in 0.25 mL of Dulbecco's modified Eagle's media containing 10% charcoal-stripped fetal bovine serum (DMEM+10% CS-FBS). HEK293 cells were co-transfected with various plasmid DNAs using a calcium phosphate co-precipitation method (Graham et al., Virology, 1973, 52:456). To each well was added 0.25 mL of a transfection mix (1.36 mL transfection components and 11.5 mL DMEM+10% CS-FBS) containing 60 ng of a firefly luciferase-based reporter plasmid, 60 ng of pSG5 containing human LXRα or LXRβ cDNA, 0.6 ng of the sea pansy luciferase normalization plasmid phRL-TK (Promega), and 220 ng of pBS/SK+II. […] Firefly and sea pansy luciferase activities in the lysate were measured using a dual luciferase assay (Promega) and a Monolight luminometer. […] Fold activation of the firefly luciferase reporter plasmid was calculated from normalized relative light units in the presence and absence of the test compound.
For orientation: Reporter assays use an easily measured gene product as a stand-in for the process of interest.

Setting [4] is: daily gavage 3 or 5 mg/kg, vs vehicle.

On to `CC(/C=C/C(O)(C(F)(F)F)C(F)(F)F)C1CCC2C3C[C@H](O)[C@@H]4C[C@H](O)CCC4(C)C3CCC12C` (some centres unmarked) [Compound 1], for which, in test [1] (3 mg/kg/day), the “mean atherosclerotic lesion area, aortic root” value is “significantly reduced”. In test [1] (5 mg/kg/day), the “atherosclerotic plaque size, ascending aorta arch” value was “significantly reduced”; the “atherosclerotic plaque size, innominate artery” value was “significantly reduced”; the “mean atherosclerotic lesion area, aortic root” value is “significantly reduced”. Moreover, in test [2] (3 mg/kg daily gavage), the HDL cholesterol level entry is given as “not”, the VLDL cholesterol level entry was “reduced” and the triglyceride levels result is “reduced”. Also, in test [2] (5 mg/kg daily gavage), the HDL cholesterol level result is “not”, the LDL cholesterol level result is “reduced”, the VLDL cholesterol level entry is recorded as “reduced” and the triglyceride levels result is listed as “reduced”. In test [2] (setting [4]), the “cholesterol level in the blood” value is recorded as “marked decrease” and the “triglyceride level in the blood” value is on record as “marked decrease”. For the same compound, the “LXR agonist activity (fold activation of firefly luciferase reporter)” value in test [3] was “very effective LXR agonist”.
